The source of these data is patent US4350704A, “Substituted acyl derivatives of octahydro-1H-indole-2-carboxylic acids” (Warner-Lambert Company, priority 1981, dated 1982).

Counter-ions that a name gives are not always drawn.

The experiment concerns the target T1, guinea pig serum ACE (Cavia porcellus, UniProt H0UWL7).
T1 construct: ACE from guinea pig serum; from tissue; host or cells: guinea pig serum
T1 sequence (H0UWL7 33-1302): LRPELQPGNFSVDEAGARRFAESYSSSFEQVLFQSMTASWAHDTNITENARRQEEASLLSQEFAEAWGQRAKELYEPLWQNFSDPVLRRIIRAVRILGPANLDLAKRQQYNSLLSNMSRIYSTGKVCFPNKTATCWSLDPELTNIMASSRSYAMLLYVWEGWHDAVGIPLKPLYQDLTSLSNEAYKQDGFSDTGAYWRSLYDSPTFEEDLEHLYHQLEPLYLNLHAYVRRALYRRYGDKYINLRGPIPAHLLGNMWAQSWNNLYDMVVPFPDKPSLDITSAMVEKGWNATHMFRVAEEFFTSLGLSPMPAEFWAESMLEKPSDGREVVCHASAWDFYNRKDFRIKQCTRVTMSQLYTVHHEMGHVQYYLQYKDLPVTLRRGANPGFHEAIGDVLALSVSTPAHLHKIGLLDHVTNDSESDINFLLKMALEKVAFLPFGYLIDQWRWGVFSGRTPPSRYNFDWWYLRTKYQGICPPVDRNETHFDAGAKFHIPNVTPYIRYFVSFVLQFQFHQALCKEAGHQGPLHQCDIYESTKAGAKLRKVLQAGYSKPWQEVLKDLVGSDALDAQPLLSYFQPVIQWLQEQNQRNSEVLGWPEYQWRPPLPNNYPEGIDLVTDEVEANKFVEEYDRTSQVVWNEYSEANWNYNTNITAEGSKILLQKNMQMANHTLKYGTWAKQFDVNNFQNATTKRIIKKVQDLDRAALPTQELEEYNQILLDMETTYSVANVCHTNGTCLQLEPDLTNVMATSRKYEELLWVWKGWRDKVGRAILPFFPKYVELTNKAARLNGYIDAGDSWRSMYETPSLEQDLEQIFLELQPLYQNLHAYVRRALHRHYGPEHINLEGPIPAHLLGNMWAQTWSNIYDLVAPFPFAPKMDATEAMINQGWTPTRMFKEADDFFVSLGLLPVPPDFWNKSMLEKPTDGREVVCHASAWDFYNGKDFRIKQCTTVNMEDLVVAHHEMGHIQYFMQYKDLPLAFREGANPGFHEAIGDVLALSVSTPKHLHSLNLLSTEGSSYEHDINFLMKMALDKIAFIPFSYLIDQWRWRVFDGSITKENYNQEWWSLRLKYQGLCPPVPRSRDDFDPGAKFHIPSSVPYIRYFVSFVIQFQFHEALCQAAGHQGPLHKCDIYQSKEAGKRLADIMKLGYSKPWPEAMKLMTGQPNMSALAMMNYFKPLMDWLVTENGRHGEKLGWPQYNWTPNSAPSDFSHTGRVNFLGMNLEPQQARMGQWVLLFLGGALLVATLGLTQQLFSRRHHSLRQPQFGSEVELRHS
The experiment in a line: In vitro ACE Assay: angiotensin converting enzyme inhibitory activity. It counts as biochemical. The following applies: 10 min preincubation, 3H-hippuryl-glycylglycine substrate, 60 minute incubation at 37° C., read-out: IC50, Activity of Compounds of Formula V. The procedure:
In vitro ACE Assay: Angiotensin converting enzyme (ACE) inhibitory activity is determined by assaying guinea pig serum ACE in the presence and absence of the test compound. ACE from guinea pig serum and the test compounds are preincubated for 10 minutes before the addition of the labelled substrate ^3 H-hippuryl-glycylglycine. […] ACE cleaves the hippuryl-glycyl bond to form the dipeptide glycyl-glycine and ^3 H-hippuric acid. The ^3 H-hippuric acid is then extracted with ethyl acetate and the ACE inhibition of a given sample calculated on the basis of the ^3 H-hippuric acid generated.
Turning to `O=C(O)[C@@H]1C[C@@H]2CCCC[C@@H]2N1C(=O)CCS` (relative stereo) [V: R=H; R1=H; R2=H; --, (2α, 3aβ, 7aβ)-Octahydro-1-(3-mercaptopropanoyl)-1H-indole-2-carboxylic Acid], the IC50 (as a rule, the midpoint of a concentration-inhibition curve) came out at 21 nM.
The same measure for `CC(=O)SCCC(=O)N1[C@H](C(=O)O)C[C@@H]2CCCC[C@@H]21` (relative stereo) [V: R=H; R1=H; R2=CH3CO; --, (2α, 3aβ, 7aβ)-Octahydro-1-[3-(acetylthio)propanoyl]-1H-indole-2-carboxylic Acid]: 450 nM.
The same measure for `CC(CSC(=O)c1ccccc1)C(=O)N1[C@H](C(=O)O)C[C@@H]2CCCC[C@@H]21` (single isomer, unassigned; diastereomer a) [V: R=H; R1=CH3; R2=PhCO; l, A, (1)-(2α, 3aβ, 7aβ)-Octahydro-1-[3-(benzoylthio)-2-methylpropanoyl]-1H-indole-2-carboxylic Acid (Diastereomer A)]: 540 nM; for `CC(C)(C)C(=O)SCCC(=O)N1[C@H](C(=O)O)C[C@@H]2CCCC[C@@H]21` (relative stereo) [V: R=H; R1=H; R2=(CH3)3CCO; dl]: 58 nM.
The result for `CCOC(=O)[C@@H]1C[C@@H]2CCCC[C@@H]2N1C(=O)CCSC(C)=O` (relative stereo) [V: R=C2H5; R1=H; R2=CH3CO; --, Ethyl (2α, 3aβ, 7aβ)-Octahydro-1-[3-(acetylthio)propanoyl]-1H-indole-2-carboxylate] reads 3800 nM; that for `CC(CS)C(=O)N1[C@H](C(=O)O)C[C@@H]2CCCC[C@@H]21` (single isomer, unassigned; diastereomer a) [V: R=H; R1=CH3; R2=H; l, A, (1)-(2α, 3aβ, 7aβ)-Octahydro-1-(3-mercapto-2-methylpropanoyl)-1H-2-carboxylic Acid (Diastereomer A), Dicyclohexylamine Salt], 5.2 nM.
